{"source": "patent US20240368668A1", "about": "“SUBSTRATES AND BIOMARKERS OF ADAMTS7” (The Broad Institute, Inc., priority 2021, published 2024)", "note": "Square brackets hold non-standard residues; d marks the D form. Ends that are not written are not given here."}
{"test_system": "mouse ADAMTS7", "assay": "TMT10 TAILS N-terminomics, SMC1 experiment (Ad-mADAMTS7 WT vs EQ vs Luc, technical replicates, trypsin digest)", "assay_type": "cell-based", "conditions": "TAILS neo-N-terminal peptide abundance; log fold change, Ad-mADAMTS7 WT over EQ", "in_short": "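Full-length mouse ADAMTS7 (WT or E373Q mutant, C-terminal 3xFLAG) or luciferase was transduced via adenovirus, 50 MOI, into HCA-SMC (SMC1, SMC2) or HUVEC. SMC1: pooled media, technical triplicates 400 ug; SMC2: process triplicates 300 ug; HUVEC: process triplicates 200 ug, bFGF2 10 ng/ml.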"}
{"substance": "FN1_1656 (SSSPVTGYR; listed as Homo sapiens)", "logFC.mWT.over.mEQ": 1.52}
{"substance": "GSN_413 (HIANVER; listed as Homo sapiens)", "logFC.mWT.over.mEQ": 2.19}
{"substance": "HSPG2_275 (LLPGSVR; listed as Homo sapiens)", "logFC.mWT.over.mEQ": 2.49}
{"substance": "HSPG2_2331 (ANLAYPAGSTQPIR; listed as Homo sapiens)", "logFC.mWT.over.mEQ": 2.04}
{"substance": "HSPG2_2333 (LAYPAGSTQPIR; listed as Homo sapiens)", "logFC.mWT.over.mEQ": 1.92}
{"substance": "IGFBP3_31 (SAGLGPVVR; listed as Homo sapiens)", "logFC.mWT.over.mEQ": 2.49}
{"substance": "IGFBP3_32 (AGLGPVVR; listed as Homo sapiens)", "logFC.mWT.over.mEQ": 3.78}
{"substance": "IGFBP7_101 (AAGGPGVSGVCVCKSR; listed as Homo sapiens)", "logFC.mWT.over.mEQ": 3.69}
{"substance": "LOXL1_219 (VASAGVIYPYQPR; listed as Homo sapiens)", "logFC.mWT.over.mEQ": 1.09}
{"substance": "LOXL2_37 (FQQPAPEYHQPQAPANVAKIQLR; listed as Homo sapiens)", "logFC.mWT.over.mEQ": 3.28}
{"substance": "LOXL2_38 ([code q]QPAPEYHQPQAPANVAKIQLR; not fully specified; listed as Homo sapiens)", "logFC.mWT.over.mEQ": 1.26}
{"substance": "LOX_58 (LSLGSQYQPQR; listed as Homo sapiens)", "logFC.mWT.over.mEQ": 0.99}
{"substance": "LOX_123 (HWFQAGYSTSR; listed as Homo sapiens)", "logFC.mWT.over.mEQ": 1.82}
{"substance": "LOX_124 (WFQAGYSTSR; listed as Homo sapiens)", "logFC.mWT.over.mEQ": 3.62}
{"substance": "LOX_126 (QAGYSTSR; listed as Homo sapiens)", "logFC.mWT.over.mEQ": 1.59}
{"substance": "LTBP1_393 (LTATNFR; listed as Homo sapiens)", "logFC.mWT.over.mEQ": 3.89}
{"substance": "LTBP1_540 (HQQVIPHVYPVAAKTQLGR; listed as Homo sapiens)", "logFC.mWT.over.mEQ": 2.70}
{"test_system": "mouse ADAMTS7", "assay": "TMT10 TAILS N-terminomics, SMC2 experiment (process replicates, trypsin/AspN digest)", "assay_type": "cell-based", "conditions": "SMC2_TAILS HC; log fold change of N-terminal peptide, Ad-mADAMTS7 WT over EQ", "text": "(§1) ADAMTS7 Expression, Cell Culture and Preparation of the Secreted Proteins—Full-length mouse Adamts7 1-1857 (Uniprot Q68SA9, WT or E373Q catalytic mutant) with a carboxyl terminal 3xFLAG tag was used to generate custom adenoviruses as previously described. Adeno-CMV-Luciferase (Ad-Luc) from Vector Biolabs was used as a negative control. Human Coronary Artery Smooth Muscle Cells (HCA-SMC) were obtained from Lonza and expanded in Lonza SmGM-2 media in 15 cm tissue culture plates. Twenty-four hours before media collection, near confluent plates were transduced with 50 MOI adenovirus and switched to Lonza Basal SM media with volumes of 20 ml per 15 cm plate. Expression of the Flag tagged ADAMTS7 was confirmed from the media using western blot and detected using the anti-Flag M2-HRP antibody (Sigma, A8592). Collected media was processed by adding protease inhibitors (1 mM EDTA and 1 mM PMSF) and clarified by 500 g×5 min spin at 4 C to pellet cell debris. Cell media supernatants were then passed through a 0.22 um filter and kept chilled. Processed media was then concentrated 50-100× using 3 kDa Centricon Plus-70 filter unit, spun at 3,500 g×60 min at 4 C. Approximately 10% of the processed, concentrated media was set aside for total secretome proteolytic analysis. The remaining 90% of the processed, concentrated media was buffer exchanged into 50 mM HEPES pH 8.0, 150 mM NaCl (2×50 ml) using the 3 kDa Centricon Plus-70 filter unit and concentrated to >2 mg/ml to serve as input for the TAILS experiment. Secretome and TAILS input samples were stored at −80° C.\n(§2) For the first experiment, referred to as SMC1, 120 ml of media from 6×15 cm dishes was pooled from each condition (Luc, WT, EQ) and processed to produce three separate inputs for the TAILS experiment. Luc, WT and EQ inputs from the SMC1 experiment were each divided into triplicate 400 ug samples to generate technical replicate TAILS data. For the second experiment, referred to as SMC2, media was processed separately in triplicate for each condition (Luc1, Luc2, Luc3, WT1, WT2, WT3, EQ1, EQ2, EQ3) using 60 ml of media from 3×15 cm dishes for each process replicate. Inputs from the SMC2 experiment used process replicates of 300 ug each to generate TAILS data. The third experiment used input from cultured Human umbilical vein endothelial cells (HUVEC) from Lifeline Cell Technology grown in VascuLife Media and transduced in Lifeline Basal EC (+bFGF2 10 ng/ml). The HUVEC experiment used the same strategy as the SMC2 experiment, with 40 ml of media from 2×15 cm dishes for each process replicate and used 200 ug each to generate TAILS data. Inputs for process replicate experiments were restricted to the lowest concentration from the 9 parallel samples for SMC2 or HUVEC.\n(§3) TMT10 isotopic labeling and negative selection of non-labeled peptides-Sample preparation was performed based on the TAILS protocol from the Overall lab with some modifications. From a single experiment, nine parallel protein samples in 50 mM HEPES pH 8.0, 150 mM NaCl were separately denatured with guanidinium chloride (Sigma, G4505) to reach a final concentration of 2.5M guanidinium chloride and 250 mM HEPES and incubated at 65° C. for 15 min. Reduction was achieved through addition of tris(2-carboxylethyl) phosphine (TCEP) at a final concentration of […] and incubated at 65° C. for 45 min. Alkylation reaction was performed with addition of iodoacetamide (IAA, Sigma, A3221) to a final concentration of 10 mM IAA for 15 min at room temperature in the dark. Following denaturation, reduction and alkylation steps, ten percent of each of the nine parallel protein samples was removed and combined to serve as a pooled reference. Isobaric tags were added to free amine groups using the TMT10plex Isobaric Mass Tagging Kit (ThermoFisher, 90113) with TMT channels randomly assigned to the nine samples and TMT 131 assigned to the pooled reference. […]"}
{"substance": "LOXL1_219 (VASAGVIYPYQPR; listed as Homo sapiens)", "logFC.mWT.over.mEQ": 1.47}
{"substance": "LOXL2_37 (FQQPAPEYHQPQAPANVAKIQLR; listed as Homo sapiens)", "logFC.mWT.over.mEQ": 3.30}
{"substance": "LOXL2_38 ([code q]QPAPEYHQPQAPANVAKIQLR; not fully specified; listed as Homo sapiens)", "logFC.mWT.over.mEQ": 1.68}
{"substance": "LTBP1_393 (LTATNFR; listed as Homo sapiens)", "logFC.mWT.over.mEQ": 6.30}
{"substance": "LTBP1_540 (HQQVIPHVYPVAAKTQLGR; listed as Homo sapiens)", "logFC.mWT.over.mEQ": 1.77}
{"test_system": "mouse ADAMTS7", "assay": "TMT10 TAILS N-terminomics, SMC2 experiment (process replicates, trypsin/AspN digest)", "assay_type": "cell-based", "conditions": "SMC2_TAILS HC; log fold change, mWT over mEQ", "text": "as §1, §2, §3"}
{"substance": "FN1_1656 (SSSPVTGYR; listed as Homo sapiens)", "logFC.mWT.over.mEQ": 1.86}
{"substance": "GSN_413 (HIANVER; listed as Homo sapiens)", "logFC.mWT.over.mEQ": 1.74}
{"substance": "HSPG2_275 (LLPGSVR; listed as Homo sapiens)", "logFC.mWT.over.mEQ": 2.10}
{"substance": "HSPG2_2331 (ANLAYPAGSTQPIR; listed as Homo sapiens)", "logFC.mWT.over.mEQ": 1.91}
{"substance": "HSPG2_2333 (LAYPAGSTQPIR; listed as Homo sapiens)", "logFC.mWT.over.mEQ": 1.41}
{"substance": "IGFBP3_31 (SAGLGPVVR; listed as Homo sapiens)", "logFC.mWT.over.mEQ": 2.44}
{"substance": "IGFBP3_32 (AGLGPVVR; listed as Homo sapiens)", "logFC.mWT.over.mEQ": 5.18}
{"substance": "IGFBP7_101 (AAGGPGVSGVCVCKSR; listed as Homo sapiens)", "logFC.mWT.over.mEQ": 2.57}
{"substance": "LOX_58 (LSLGSQYQPQR; listed as Homo sapiens)", "logFC.mWT.over.mEQ": 1.77}
{"substance": "LOX_123 (HWFQAGYSTSR; listed as Homo sapiens)", "logFC.mWT.over.mEQ": 1.37}
{"substance": "LOX_124 (WFQAGYSTSR; listed as Homo sapiens)", "logFC.mWT.over.mEQ": 3.45}
{"substance": "LOX_126 (QAGYSTSR; listed as Homo sapiens)", "logFC.mWT.over.mEQ": 3.03}
